Laboratory results taken from ChEMBL document CHEMBL6103672, “Discovery of HMPL-306 (Ranosidenib), a New Potent and Selective Dual Inhibitor of Mutant IDH1 and 2 in Clinical Development for Cancer Treatment” (ACS Med Chem Lett, 2025).

Columns and labels:
[1] = Apparent permeability across apical to basolateral side in human Caco-2 cells at 10 uM incubated for 1 hrs by LC-MS/MS analysis
[2] = Apparent permeability across basolateral to apical side in human Caco-2 cells at 10 uM incubated for 1 hrs by LC-MS/MS analysis
[3] = Volume of distribution at steady state in male ICR mouse at 2.5 mg/kg, iv measured after 8 hrs by LC/MS/MS analysis; assay type: ADME, organism-based; details: in vivo, read-out: Vdss
[4] = Cmax in male ICR mouse at 10 mg/kg, po measured after 8 hrs by LC/MS/MS analysis; assay type: ADME, organism-based; details: in vivo
[5] = Oral bioavailability in male ICR mouse at 10 mg/kg measured after 8 hrs by LC/MS/MS analysis; assay type: ADME, organism-based; details: in vivo
[6] = Inhibition of IDH1 R132C mutant in human HT-1080 cells incubated for 72 hrs by measuring 2-HG production by fluorescence based analysis; assay type: functional, cell-based; details: HT-1080, 72 h
[7] = Inhibition of IDH2 R172K mutant in human HEK293 cells incubated for 72 hrs by measuring 2-HG production by fluorescence based analysis; assay type: functional, cell-based; details: HEK293, 72 h
[8] = AUC(0 to t) in male ICR mouse at 2.5 mg/kg, iv measured after 24 hrs by LC/MS/MS analysis; assay type: ADME, organism-based; details: in vivo
[9] = AUC(0 to infinity) in male Sprague-Dawley rat at 1 mg/kg, iv measured after 24 hrs by LC/MS/MS analysis; assay type: ADME, organism-based; details: in vivo
[10] = Cmax in male Sprague-Dawley rat at 5 mg/kg, po measured after 24 hrs by LC/MS/MS analysis; assay type: ADME, organism-based; details: in vivo
[11] = Half life in male Sprague-Dawley rat at 1 mg/kg, iv measured after 24 hrs by LC/MS/MS analysis; assay type: ADME, organism-based; details: in vivo
[12] = In vivo inhibition of 2-HG in BALB/c nude mouse xenografted with human U-87 MG cells harboring IDH2 R140Q mutant at 25 mg/kg, po measured after 40 hrs post dose; assay type: functional; details: Mus musculus, BALB/c, U-87 MG

Papp A→B at 1 h, 10 µM [1]: 53.3 ×10⁻⁶ cm/s
Papp B→A at 1 h, 10 µM [2]: 24 ×10⁻⁶ cm/s
Vd [3]: 2.57 L/kg
Cmax [4]: 2050 ng/mL
bioavailability [5]: 84.2%
IC50 [6]: 26 nM
IC50 [7]: 425 nM
AUC(0-t) at 24 h [8]: 10400 ng·h/mL
AUC(0-inf) [9]: 19800 ng·h/mL
Cmax [10]: 1490 ng/mL
half-life [11]: 2990 min
SMILES: C[C@@H](Nc1nc(N[C@H](C)C(F)(F)F)nc(C2=C(F)[C@H](O)C(F)(F)CC2)n1)C(F)(F)F [RANOSIDENIB]
inhibition in vivo at 25 mg/kg [12]: 93%
